In article PMC3543460, “Structure-Activity Relationships of the Antimicrobial Peptide Arasin 1 — And Mode of Action Studies of the N-Terminal, Proline-Rich Region” (PLoS ONE, 2013):
In brackets after ≈: the same amount, converted by molar mass. Peptide text beside a SMILES is read from it.

Tests used:
S. aureus ATCC 9144 = type: cell-based, Staphylococcus aureus; details: ATCC 9144, 24 h
Method: (§1) Escherichia coli (ATCC 25922), E. coli HB101, Pseudomonas aeruginosa (ATCC 27853), Staphylococcus aureus (ATCC 9144) and Corynebacterium glutamicum (ATCC 13032) were grown at 37°C in Mueller Hinton agar (MH; Difco Laboratories, Detroit, USA). The yeasts Candida albicans (ATCC 10231) and Saccharomyces cerevisiae spp and the mold Botrytis cinerea 101 [33] were cultivated on potato dextrose agar supplemented with 2% glucose at room temperature (RT).
(§2) Determination of the MIC against bacteria was performed by continuous monitoring of bacterial growth using a Bioscreen C microbiology reader (Labsystems Oy, Helsinki, Finland). The synthetic peptides were tested for antibacterial and antifungal activity at final concentrations (prepared from serial two-fold dilutions) ranging from 0.2 µM to 100 µM. The test was performed in 100-well flat-bottomed honeycomb plates, in which 50 µl peptide solution was incubated with 50 µl of a suspension of an actively growing culture of bacteria diluted to a starting concentration of 2.5×10^5 CFU/ml in Mueller Hinton Broth (MHB). The growth chamber was maintained at 37°C during the incubation period. The absorbance was measured by a turbidometric method with vertical light photometry and a wide band filter (420–580 nm). MIC was defined as the lowest concentration resulting in no visible bacterial growth after 24 h.

C. glutamicum ATCC 13032 = type: cell-based, Corynebacterium glutamicum; details: ATCC 13032, 24 h
Method: as §1, §2

B. cinerea 101 = type: cell-based, Botrytis cinerea; details: 101, 48 h
Method: as §1
(§3) Fungal spores were dissolved in potato dextrose broth (Difco, Lawrence, KS, USA) and the cell concentration was determined and adjusted after counting in a Bürker chamber. Botrytis cinerea was filtered through a piece of cotton before counting. An aliquot of 50 µl of fungal spores (final concentration 2×10^5 spores/ml) were inoculated in 96-well Nunclon™ microtitre plates (Nagle Nunc Int. Roskilde, Denmark) along with 50 µl of synthetic peptide dissolved in Milli-Q water. Cultures were grown in a dark moist chamber without shaking at 20°C for S. cerevisiae and B. cinerea, and at 37°C for C. albicans. Growth inhibition was determined microscopically after 48 h of incubation. Inhibitory concentrations (IC50) was defined as the lowest concentration tested which yielded less than 50% visible growth compared to the growth control (fungi). Each peptide was tested in parallels in three individual runs for the antimicrobial assays.

P. aeruginosa ATCC 27853 = type: cell-based, Pseudomonas aeruginosa; details: ATCC 27853, 24 h
Method: as §1, §2

[1] = tested on: E. coli HB101 constitutively expressing the luxCDABE operon; experiment: Cell viability assay (luxCDABE luminescence); type: cell-based, Escherichia coli; details: 50% MH, OD600 0.2, 30°C
Method: E.coli HB101 was transformed with the plasmid pCGLS-11 to enable constitutive bacterial luciferase expression from the luxCDABE operon. The resulting strain was used for cell viability assays as follows. An overnight culture in MH medium with ampicillin (100 µg/ml) was pelleted at 3000×g for 10 min and washed in MH medium before re-suspending the cells in 50% MH medium with a final OD600 of approximately 0.2. After 30 min of incubation at 30°C the cells were again adjusted to an OD600 of 0.2. An aliquot of 95 µl of bacterial solution was dispensed into each well of a black 96 well microtiter plate with transparent bottom (Falcon, Bredford, MA, USA). To achieve the indicated concentrations, a multi-channel pipette was used to add 5 µl of a two-fold dilution series of peptide solution in water to 8 wells simultaneously. The plate was loaded into a Perkin-Elmer Envision microtiter plate reader immediately after addition of the peptide (arasin 1(1–23), PR-39(1–26) or cecropin P1) and the measurement started 30 sec later because of handling events and 2 seconds of shaking inside the plate reader. Light production and growth (OD595) of the sensor bacteria was followed for 3 h under repeated shaking cycles before each measurement at 30°C.

Chitin-binding assay = details: 50 µg peptide with 40 mg chitin, washes with 0.1 M NaCl, 1 M NaCl, 10% acetic acid at 95°C; RP-HPLC of supernatants
Method: The ability of arasin 1(1–23) and arasin 1(20–37)-Acm to bind chitin was estimated using a modified protocol from Kawabata et al.. Briefly, 50 µg of peptide was incubated with 40 mg chitin in 800 µl buffer (50 mM Tris-HCl, 0.1 M NaCl, pH 8.0). Sequentially chitin was incubated at RT with 800 µl buffer containing 0.1 M NaCl and 1 M NaCl, respectively, and finally at 95°C with 10% acetic acid. All incubations were performed for 10 min, and chitin was collected by centrifugation at 1000×g for 5 min between each step. Supernatants were subjected to RP-HPLC using a Sunfire™ Prep C18 column (Waters; 100 Å 5 µm; 10×250 mm, MA, USA), with a linear gradient from 8 to 60% acetonitrile and a flow of 3 ml/min over 60 min. Absorbance was monitored at 220 nm and the resulting chromatograms were compared.

E. coli HB101 [2] = experiment: Membrane integrity assay II (propidium iodide, flow cytometry); type: cell-based, Escherichia coli; details: 50% MH, 37°C, four independent experiments
Method: The effect of arasin 1(1–23) and cecropin P1 on membrane permeabilization was also studied by measuring the percentage of propidium iodide (PI) positive cells by flow cytometry. Samples of 1×10^6 cells/ml of E. coli HB101 were incubated in 50% MH with peptides at 37°C for different time span. After incubation, PI (Sigma Aldrich, Saint Louis, MO, USA) was added to the peptide-treated bacteria at a final concentration of 10 µg/ml. The cells were analyzed after 4 min of incubation with PI at 37°C in the flow cytometer as described.

E. coli ATCC 25922 = type: cell-based, Escherichia coli; details: ATCC 25922, 24 h
Method: as §1, §2

[3] = tested on: E. coli HB101 expressing eukaryotic luciferase lucGR; experiment: Membrane integrity assay I (D-luciferin influx, lucGR luciferase); type: cell-based, Escherichia coli
Description: Escherichia coli HB101 was transformed with the plasmids pCSS962 and the helper plasmid pGB3 to allow for constitutive expression of the eukaryotic luciferase gene lucGR. The resulting strain was isogenic to the other E. coli strains used. The membrane permeabilization assay used is a modification of the protocol described by Virta et al.. The assay is based on E. coli cells, expressing a eukaryotic luciferase, depending on externally added D-luciferin as a substrate to emit light. At neutral pH the bacterial cytoplasmic membrane efficiently prevents uptake of external D-luciferin. However, disruption of the membrane by e.g. a membrane active AMP enhances D-luciferin influx and thereby induces bacterial light emission. Preparation of the cells and the assay plate was done as described for the viability assay above. However, chloramphenicol (30 µg/ml) was added in addition to ampicillin to the overnight culture, and D-luciferin sodium-salt (Biosynth, Staad, Switzerland) was added to the bacteria to final concentration of 1 mM. To allow shorter measurement intervals, only 8 wells were measured simultaneously. Arasin 1(1–23), PR-39(1–26) and cecropin P1 were tested for their membrane disruptive capacity.

C. albicans ATCC 10231 = type: cell-based, Candida albicans; details: ATCC 10231, 48 h
Method: as §1, §3

E. coli HB101 [4] = experiment: Bactericidal assay (killing kinetics, colony counts); type: cell-based, Escherichia coli; details: 50% MHB, 1×10^6 CFU/ml, 37°C
Method: During incubation, aliquots were removed at different time intervals, washed in buffered high salt solution (10 mM Na-phosphate, 400 mM NaCl, 10 mM MgCl2), diluted and plated on MH plates. The number of bacterial CFU was determined after approximately 48 h of incubation at 37°C.

S. cerevisiae spp. = type: cell-based, Saccharomyces cerevisiae; details: 48 h
Method: as §1, §3

E. coli = experiment: Antimicrobial activity at varied MH concentration; type: cell-based, Escherichia coli; details: results not shown
Description: In contrast to the results from E. coli and P. aeruginosa, the C-terminal part of arasin 1(1–23) alone arasin 1(7–23) and 1(9–23) inhibits C. glutamicum and all the fungi. At the same time this antibacterial and antifungal activity is strictly dependent on a fragment between aa 13–23. This indicates a somewhat different mode of action for Gram- negative and Gram-positive bacteria, respectively. Likewise the mode of action against fungi is likely different. It is tempting to speculate that the N-terminal 5–10 amino acids might be involved in arasin 1(1–23) transfer across the outer membrane while the C-terminal part might bind the molecular target which is responsible for growth inhibition at low concentrations. The antimicrobial assays were all performed in MH or potato dextrose medium at a final concentration of 50% strength for bacteria and fungi, respectively. […] This means that the peptides are very sensitive to medium composition, and perhaps also salinity and/or ionic strength. […] In some studies, the use of diluted or poor medium instead of rich medium in MIC and mode of action studies is claimed to increase the sensitivity of the assays, [47]. The reasons of the medium-dependence have not been further evaluated, and 50% MH was used as the standard medium for the mode of action studies.

[5] = tested on: human red blood cells (RBC); experiment: Hemolytic assay; details: read-out: EC50 (peptide concentration producing 50% hemolysis); 1% RBC suspension in PBS pH 7.4, 37°C, 1 h, absorbance at 550 nm; 100% hemolysis = 0.05% Triton X-100
Method: The erythrocytes were pelleted by centrifugation at 450×g for 10 min and washed three times with phosphate-buffered saline (PBS; 320 mOsm, pH 7.4). The cell pellet was resuspended in 4 ml PBS and adjusted to a suspension giving 10% RBC. The test was performed in a 96 well U-shaped microtiter plate (Nunclon™ Surface, No. 163320; Nagle Nunc Int., Roskilde, Denmark), in which 50 µl peptide were incubated with 40 µl PBS and 10 µl RBC suspension. The synthetic peptides were tested at final concentrations ranging from 0.2 to 100 µM. After incubation in a shaker at 37°C for 1 h, the plate was centrifuged at 200×g for 5 min. The supernatants (60 µl) were carefully transferred to a new flat-bottomed polycarbonate microtiter plate (Nunc™ No. 269620, Nagle Nunc Int., Roskilde, Denmark), and absorbance was measured at 550 nm. Baseline hemolysis and 100% hemolysis were defined as the amount of hemoglobin released in the presence of PBS and 0.05% Triton X-100 (Sigma-Aldrich, Saint Louis, MO, USA), respectively. The EC50 value was taken as the mean concentration of peptide producing 50% hemolysis.

Compound	MIC S. aureus ATCC 9144 (S. aureus ATCC 9144) [µM]	MIC C. glutamicum ATCC 13032 (C. glutamicum ATCC 13032) [µM]	IC50 (B. cinerea 101) [µM]	MIC P. aeruginosa ATCC 27853 (P. aeruginosa ATCC 27853) [µM]	luminescence compared to untreated bacteria ([1]; after 10 min, at 10-fold MIC)	luminescence compared to untreated bacteria ([1]; at MIC values (5 µM))	binding to chitin (Chitin-binding assay)	PI-positive (permeabilized) cells (E. coli HB101 [2]; peptide at 5×MIC (20 µM), 1×10^6 cells/ml) [%]	PI-positive (permeabilized) cells (E. coli HB101 [2]; peptide at 10×MIC (40 µM), after 15 min of treatment)	PI-positive (permeabilized) cells (E. coli HB101 [2]; peptide at MIC (4 µM), 1×10^6 cells/ml, background subtracted) [%]	MIC E. coli ATCC 25922 (E. coli ATCC 25922) [µM]	light emission (D-luciferin influx) at concentrations above MIC ([3]; 1 mM D-luciferin)	light emission (D-luciferin influx) at concentration around MIC ([3]; compared with cecropin P1 treatment, 1 mM D-luciferin)	time at which permeabilization peaked ([3]; high concentrations of peptide)	IC50 (C. albicans ATCC 10231) [µM]	effect on viable cell count at MIC (E. coli HB101 [4]; 4 µM (MIC), up to 4 h)	reduction of viable E. coli cells (E. coli HB101 [4]; 20 µM (5×MIC), after 30 min) [log]	IC50 (S. cerevisiae spp.) [µM]	change of antimicrobial activity against E. coli by varying the MH concentration (E. coli)	EC50 [5] [nM]
CC[C@H](C)[C@H](NC(=O)[C@@H]1CCCN1C(=O)[C@H](CCCCN)NC(=O)[C@@H]1CCCN1C(=O)[C@H](CCCNC(=N)N)NC(=O)CNC(=O)[C@@H]1CCCN1C(=O)[C@H](Cc1ccccc1)NC(=O)[C@@H]1CCCN1C(=O)[C@H](CCCNC(=N)N)NC(=O)[C@@H]1CCCN1C(=O)[C@H](CCCNC(=N)N)NC(=O)CNC(=O)[C@@H]1CCCN1C(=O)[C@H](CO)NC(=O)[C@@H]1CCCN1C(=O)[C@H](Cc1c[nH]c2ccccc12)NC(=O)[C@H](CCCNC(=N)N)NC(=O)[C@@H](N)CO)C(=O)N[C@@H](Cc1ccccc1)C(=O)N[C@@H](CCCNC(=N)N)C(=O)N1CCC[C@H]1C(=O)N[C@@H](CCCNC(=N)N)C(=O)O [Arasin 1(1–23)] (H-SRWPSPGRPRPFPGRPKPIFRPR-OH; N-terminus and C-terminus assumed)	>100	0.8 (≈ 2.19 µg/mL)	12.5	12.5 (≈ 34.3 µg/mL)	more than 60%	more than 80%	strong binding of the peptide to chitin	30	approximately 75%	~10	6.3 (≈ 17.3 µg/mL)	doubling of light emission	Minimal amounts of light	approximately 10 min	12.5	inhibition of bacterial growth without decreasing the number of viable cells	1	12.5		
CC[C@H](C)[C@H](NC(=O)[C@H](CCCNC(=N)N)NC(=O)[C@@H]1CCCN1C(=O)[C@@H]1CCCN1C(=O)[C@H](CC(C)C)NC(=O)[C@H](CCCNC(=N)N)NC(=O)[C@@H]1CCCN1C(=O)[C@@H]1CCCN1C(=O)[C@H](Cc1ccccc1)NC(=O)[C@H](Cc1ccccc1)NC(=O)[C@@H]1CCCN1C(=O)[C@@H]1CCCN1C(=O)[C@@H]1CCCN1C(=O)[C@H](CCCNC(=N)N)NC(=O)[C@@H]1CCCN1C(=O)[C@H](CCCNC(=N)N)NC(=O)[C@@H]1CCCN1C(=O)[C@H](CC(C)C)NC(=O)[C@H](Cc1ccc(O)cc1)NC(=O)[C@@H]1CCCN1C(=O)[C@@H]1CCCN1C(=O)[C@H](CCCNC(=N)N)NC(=O)[C@@H]1CCCN1C(=O)[C@H](CCCNC(=N)N)NC(=O)[C@H](CCCNC(=N)N)NC(=O)[C@@H](N)CCCNC(=N)N)C(=O)O [PR39(1–26), reference compound] (H-RRRPRPPYLPRPRPPPFFPPRLPPRI-OH; N-terminus and C-terminus assumed)	50 (≈ 161 µg/mL)	0.4 (≈ 1.29 µg/mL)	12.5	3.1 to 6.3							0.8 to 1.6				12.5			12.5	did not change the antimicrobial activity	
Bac7(1–16): fragment of the mammalian proline-rich antimicrobial peptide Bac7 (RRIRPRPPRLPRPRPR; Bactenecin 7; UniProt P19661 131-146, looked up, fragment)																			did not change the antimicrobial activity	
mellitin B: hemolytic control peptide purchased from Sigma-Aldrich																				2000
